The target in this assay is mTOR/GbL/Raptor (mTORC1) (Homo sapiens, UniProt P42345). The experiment in a line: mTOR/GbL/Raptor (mTORC1) ELISA assay, phosphorylation of 4E-BP1. In kind it is biochemical. Particulars: 0.2 nM mTORC1, 40 uM ATP, 50 nM NHis-tagged 4E-BP1, 120 minutes; read-out: IC50 in this assay (mTORC1 ELISA). A digest of the protocol: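 Phospho-4E-BP1 was quantified by luminescent ELISA (anti-phospho-4E-BP1 IgG, HRP-tagged secondary) after capture of the His-tagged substrate on Ni-chelate plates.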
The term IC50 denotes the concentration at which inhibition is half-maximal. `Cc1nc(C)c(C(C)C)c(N2CCOc3c(C)cc(-c4cnc5sc(N)nc5c4)cc3C2)n1` [Compound 104, 6-{4-[2,6-dimethyl-5-(1-methylethyl)pyrimidin-4-yl]-9-methyl-2,3,4,5-tetrahydro-1,4-benzoxazepin-7-yl}[1,3]thiazolo[5,4-b]pyridin-2-amine]: the IC50 was at most 100 nM.

As to `Cc1cc(-c2cnc3sc(N)nc3c2)cc2c1OCCN(c1nc(CNCC(F)(F)F)nc(C)c1C(C)C)C2` [Compound 103, 6-{9-methyl-4-[6-methyl-5-(1-methylethyl)-2-{[(2,2,2-trifluoroethyl)amino]methyl}pyrimidin-4-yl]-2,3,4,5-tetrahydro-1,4-benzoxazepin-7-yl}[1,3]thiazolo[5,4-b]pyridin-2-amine], the IC50 fell in the range of 100 to 500 nM.

On to `CSc1nc(Cl)c(C(C)(C)O)c(N2CCOc3c(C)cc(-c4cnc5sc(N)nc5c4)cc3C2)n1` [Compound 114, 2-{4-[7-(2-amino[1,3]thiazolo[5,4-b]pyridin-6-yl)-9-methyl-2,3-dihydro-1,4-benzoxazepin-4(5H)-yl]-6-chloro-2-(methylthio)pyrimidin-5-yl}propan-2-ol], for which the IC50 was 100 to 500 nM.

As for `Cc1cc(-c2cnc3sc(N)nc3c2)cc2c1OCCN(c1ncc(F)c(N)n1)C2` [Compound 35, 6-[4-(4-amino-5-fluoropyrimidin-2-yl)-9-methyl-2,3,4,5-tetrahydro-1,4-benzoxazepin-7-yl][1,3]thiazolo[5,4-b]pyridin-2-amine], the IC50 lay in the range of 100 to 500 nM.

As to `Cc1cc(-c2cnc(Cl)c(NS(C)(=O)=O)c2)cc2c1OCCN(c1nc(CNCC(F)F)nc(C)c1C(C)C)C2` [Compound 164, N-(2-chloro-5-{4-[2-{[(2,2-difluoroethyl)amino]methyl}-6-methyl-5-(1-methylethyl)pyrimidin-4-yl]-9-methyl-2,3,4,5-tetrahydro-1,4-benzoxazepin-7-yl}pyridin-3-yl)methanesulfonamide], the IC50 is at most 100 nM.

For the compound `Cc1cc(-c2cnc3nc[nH]c3c2)cc2c1OCCN(c1nc(N)nc(C)c1C(C)C)C2` [Compound 163, 4-[7-(1H-imidazo[4,5-b]pyridin-6-yl)-9-methyl-2,3-dihydro-1,4-benzoxazepin-4(5H)-yl]-6-methyl-5-(1-methylethyl)pyrimidin-2-amine], the IC50 is at most 100 nM.

On to `C=Cc1c(C)nc(N)nc1N1CCOc2c(C)cc(-c3cnc4sc(N)nc4c3)cc2C1` [Compound 9, 6-[4-(2-amino-5-ethenyl-6-methylpyrimidin-4-yl)-9-methyl-2,3,4,5-tetrahydro-1,4-benzoxazepin-7-yl][1,3]thiazolo[5,4-b]pyridin-2-amine], for which the IC50 was at most 100 nM.

On to `Cc1cc(-c2cnc3sc(N)nc3c2)cc2c1OCCN(c1ncc(C(N)=O)c(N)n1)C2` [Compound 27, 4-amino-2-[7-(2-amino[1,3]thiazolo[5,4-b]pyridin-6-yl)-9-methyl-2,3-dihydro-1,4-benzoxazepin-4(5H)-yl]pyrimidine-5-carboxamide], for which the concentration for half-maximal inhibition (IC50) is 100 to 500 nM.

With `CCc1nc(CN(C)C)nc(N2CCOc3c(C)cc(-c4cnc5sc(N)nc5c4)cc3C2)c1CC` [Compound 85, 6-(4-{2-[(dimethylamino)methyl]-5,6-diethylpyrimidin-4-yl}-9-methyl-2,3,4,5-tetrahydro-1,4-benzoxazepin-7-yl)[1,3]thiazolo[5,4-b]pyridin-2-amine], the IC50 was at most 100 nM.

For the compound `Cc1cc(-c2cn[nH]c2)cc2c1OCCN(c1nc(N)nc(C)c1C(C)C)C2` [Compound 80, 4-methyl-5-(1-methylethyl)-6-[9-methyl-7-(1H-pyrazol-4-yl)-2,3-dihydro-1,4-benzoxazepin-4(5H)-yl]pyrimidin-2-amine], the IC50 is at most 100 nM.

`Cc1cc(-c2cnc3sc(N)nc3c2)cc2c1OCCN(c1ncc(C(F)(F)F)c(N)n1)C2` [Compound 13, 6-{4-[4-amino-5-(trifluoromethyl)pyrimidin-2-yl]-9-methyl-2,3,4,5-tetrahydro-1,4-benzoxazepin-7-yl}[1,3]thiazolo[5,4-b]pyridin-2-amine]: the IC50 was in the range of 100 to 500 nM.

Consider `Cc1cc(-c2ccnc(F)c2)cc2c1OCCN(c1nc(N)nc(C)c1C(C)C)C2` [Compound 83, 4-[7-(2-fluoropyridin-4-yl)-9-methyl-2,3-dihydro-1,4-benzoxazepin-4(5H)-yl]-6-methyl-5-(1-methylethyl)pyrimidin-2-amine], for which the IC50 is 100 to 500 nM.

In the case of `Cc1cc(-c2cnc3sc(N)nc3c2)cc2c1OCCN(c1nc(CN(C)CCF)nc(C)c1C(C)C)C2` [Compound 156, 6-{4-[2-{[(2-fluoroethyl)(methyl)amino]methyl}-6-methyl-5-(1-methylethyl)pyrimidin-4-yl]-9-methyl-2,3,4,5-tetrahydro-1,4-benzoxazepin-7-yl}[1,3]thiazolo[5,4-b]pyridin-2-amine], the IC50 was at most 100 nM.

With `Cc1cc(-c2cnc3sc(N)nc3c2)cc2c1OCCN(c1ncc(C#N)c(N)n1)C2` [Compound 26, 4-amino-2-[7-(2-amino[1,3]thiazolo[5,4-b]pyridin-6-yl)-9-methyl-2,3-dihydro-1,4-benzoxazepin-4(5H)-yl]pyrimidine-5-carbonitrile], the IC50 lay within 100 to 500 nM.

In the case of `Cc1cc(-c2ccn[nH]2)cc2c1OCCN(c1nc(N)nc(C)c1C(C)C)C2` [Compound 72, 4-methyl-5-(1-methylethyl)-6-[9-methyl-7-(1H-pyrazol-5-yl)-2,3-dihydro-1,4-benzoxazepin-4(5H)-yl]pyrimidin-2-amine], the IC50 is 100 to 500 nM.

Take `COCCc1cnc(C)nc1N1CCOc2c(C)cc(-c3cnc4sc(N)nc4c3)cc2C1` [Compound 135, 6-(9-methyl-4-{2-methyl-5-[2-(methyloxy)ethyl]pyrimidin-4-yl}-2,3,4,5-tetrahydro-1,4-benzoxazepin-7-yl)[1,3]thiazolo[5,4-b]pyridin-2-amine]: the IC50 is at most 100 nM.

Consider `Cc1cc(-c2cccc(C(N)=O)c2)cc2c1OCCN(c1nc(N)nc(C)c1C(C)C)C2` [Compound 77, 3-{4-[2-amino-6-methyl-5-(1-methylethyl)pyrimidin-4-yl]-9-methyl-2,3,4,5-tetrahydro-1,4-benzoxazepin-7-yl}benzamide], for which the IC50 was 100 to 500 nM.

For `Cc1nc2ccc(-c3cc(C)c4c(c3)CN(c3nc(CN(C)C)nc(C)c3C(C)C)CCO4)cc2[nH]1` [Compound 45, N,N-dimethyl-1-{4-methyl-5-(1-methylethyl)-6-[9-methyl-7-(2-methyl-1H-benzimidazol-6-yl)-2,3-dihydro-1,4-benzoxazepin-4(5H)-yl]pyrimidin-2-yl}methanamine], the IC50 lay within 100 to 500 nM.

Regarding `CCc1c(Cl)nc(N)nc1N1CCOc2c(C)cc(-c3cnc4sc(N)nc4c3)cc2C1` [Compound 54, 6-[4-(2-amino-6-chloro-5-ethylpyrimidin-4-yl)-9-methyl-2,3,4,5-tetrahydro-1,4-benzoxazepin-7-yl}[1,3]thiazolo[5,4-b]pyridin-2-amine], the IC50 is at most 100 nM.

For the compound `Cc1cc(-c2cnc(Cl)c(NS(C)(=O)=O)c2)cc2c1OCCN(c1ncc(C(F)(F)F)c(N)n1)C2` [Compound 15, N-(5-{4-[4-amino-5-(trifluoromethyl)pyrimidin-2-yl]-9-methyl-2,3,4,5-tetrahydro-1,4-benzoxazepin-7-yl}-2-chloropyridin-3-yl)methanesulfonamide], the IC50 fell in the range of 100 to 500 nM.

In the case of `Cc1nc2ncc(-c3cc(C)c4c(c3)CN(c3nc(CNCC(F)F)nc(C)c3C(C)C)CCO4)cc2[nH]1` [Compound 166, 2,2-difluoro-N-({4-methyl-5-(1-methylethyl)-6-[9-methyl-7-(2-methyl-1H-imidazo[4,5-b]pyridin-6-yl)-2,3-dihydro-1,4-benzoxazepin-4(5H)-yl]pyrimidin-2-yl}methyl)ethanamine], the IC50 was at most 100 nM.

Consider `Cc1cc(-c2cnc3sc(N)nc3c2)cc2c1OCCN(c1nc(CNC(C)(C)C)nc(C)c1C(C)C)C2` [Compound 90, 6-{4-[2-{[(1,1-dimethylethyl)amino]methyl}-6-methyl-5-(1-methylethyl)pyrimidin-4-yl]-9-methyl-2,3,4,5-tetrahydro-1,4-benzoxazepin-7-yl}[1,3]thiazolo[5,4-b]pyridin-2-amine], for which the IC50 was at most 100 nM.

As to `Cc1cc(-c2cnc3sc(N)nc3c2)cc2c1OCCN(c1nc(CC#N)nc(C)c1C(C)C)C2` [Compound 105, {4-[7-(2-amino[1,3]thiazolo[5,4-b]pyridin-6-yl)-9-methyl-2,3-dihydro-1,4-benzoxazepin-4(5H)-yl]-6-methyl-5-(1-methylethyl)pyrimidin-2-yl}acetonitrile], the IC50 was at most 100 nM.

Take `Cc1cc(-c2cnc(N)s2)cc2c1OCCN(c1nc(N)nc(C)c1C(C)C)C2` [Compound 84, 4-[7-(2-amino-1,3-thiazol-5-yl)-9-methyl-2,3-dihydro-1,4-benzoxazepin-4(5H)-yl]-6-methyl-5-(1-methylethyl)pyrimidin-2-amine]: the 50% inhibitory concentration (IC50) was at most 100 nM.

Turning to `C=C(C)c1c(C)nc(N)nc1N1CCOc2c(C)cc(-c3cnc4sc(N)nc4c3)cc2C1` [Compound 130, 6-{4-[2-amino-6-methyl-5-(1-methylethenyl)pyrimidin-4-yl]-9-methyl-2,3,4,5-tetrahydro-1,4-benzoxazepin-7-yl}[1,3]thiazolo[5,4-b]pyridin-2-amine], the IC50 is at most 100 nM.

As to `Cc1cc(-c2cccnc2)cc2c1OCCN(c1nc(N)nc(C)c1C(C)C)C2` [Compound 76, 4-methyl-5-(1-methylethyl)-6-(9-methyl-7-pyridin-3-yl-2,3-dihydro-1,4-benzoxazepin-4(5H)-yl)pyrimidin-2-amine], the concentration for half-maximal inhibition (IC50) lay within 100 to 500 nM.

With `Cc1cc(-c2cnc3sc(N)nc3c2)cc2c1OCCN(c1nc(NCCN(C)C)nc(C)c1C(C)C)C2` [Compound 50, N′-{4-[7-(2-amino[1,3]thiazolo[5,4-b]pyridin-6-yl)-9-methyl-2,3-dihydro-1,4-benzoxazepin-4(5H)-yl]-6-methyl-5-(1-methylethyl)pyrimidin-2-yl}-N,N-dimethylethane-1,2-diamine], the IC50 is at most 100 nM.

For the compound `Cc1cc(-c2cncnc2)cc2c1OCCN(c1nc(N)nc(C)c1C(C)C)C2` [Compound 71, 4-methyl-5-(1-methylethyl)-6-(9-methyl-7-pyrimidin-5-yl-2,3-dihydro-1,4-benzoxazepin-4(5H)-yl)pyrimidin-2-amine], the IC50 was 100 to 500 nM.

These data come from patent publication US20140107100A1, “Benzoxazepines as Inhibitors of PI3K/mTOR and Methods of Their Use and Manufacture” (EXELIXIS, INC., priority 2010, published 2014).
